“Also recorded” adds a separate entry of the source. Read-outs that look alike come from different tables or passages of the source.
Key:
[1] = Safety/tolerability: AE, ADR, DLT in patients with advanced cancer; assay type: in vivo
Text: This was a multicenter, uncontrolled, open-label, dose-escalation study on DEBIO1143 in patients with advanced cancer. It employed an accelerated titration design for dose escalation with 100 % dose increments in consecutively enrolled single patients until drug-related grade-2 toxicity was observed during the initial treatment cycle (until day 28 or day 21 as per protocol amendment). If this was the case, cohort size was expanded to three patients and dosing increment was reduced to 50 % of the last dose. Dose escalation was to be stopped at the MTD which was considered exceeded if at any dose level more than one patient experienced dose-limiting toxicity (DLT) during the first treatment cycle. DLT was defined as any of the following: (a) non-hematological toxicity of grade ≥3 (excluding nausea, vomiting, diarrhea unless not controlled by maximal antiemetic/diarrheal therapy for >24 h); (b) anemia or neutropenia of grade ≥3 or thrombocytopenia of grade 4 or any grade if associated with clinically significant bleeding; (c) any AE resulting in dose delay or reduction; (d) any toxicity considered dose-limiting by the investigator. If only one out of the three patients of a cohort experienced drug-related DLT, the cohort was expanded by another three patients to be treated at the same dose level. If none of these additional patients experienced DLT, the dose escalation by 50 %, rounded down to the nearest capsule strength combination, continued in the next cohort of three patients.
The incidence of AE, ADR, and DLT was recorded at all scheduled visits (on days 1, 15, and 28 of each cycle and additionally on days 5, 8, and 22 of cycle 1) and graded according to the Common Terminology Criteria for Adverse Events, version 4.0 of the National Cancer Institute. Moreover, safety laboratory, 12-lead ECG, vital sign measurements, and physical examinations were performed.

[2] = parameters: method as in PMID 23813446; details: non-human primates; cited from earlier work
[3] = system: tumor necrosis factor α (TNFα); assay: Plasma TNFα ELISA; parameters: species or system human; details: in vivo
Procedure: (§1) cIAP-1 levels were measured in tumor tissue and surrogate tissue as available. Peripheral blood mononuclear cells (PBMCs) were analyzed for DEBIO1143-induced cIAP-1 degradation. Plasma native cytokeratin-18 ([…]) or caspase-3 generated cytokeratin-18 fragments (M30), interleukin 8 (IL8), chemokine ligand 2 (CCL2, MCP1), and tumor necrosis factor α (TNFα) were measured by ELISA as markers of epithelial cell death and inflammation on days 1 (predose, 1, 3, 6, and 12 h postdose), 2, and 5. […] For the detection of cIAP-1 in paraffin-embedded human tissue, a validated immunohistochemical (IHC) assay was used. DEBIO1143-induced cIAP-1 degradation was measured in PBMCs using Western blot. Plasma biomarkers were measured through commercial ELISAs. All laboratory analyses were performed by MPI Research, Inc. (PK) and Mosaic Laboratory, LLC (PD).

[4] = system: advanced solid tumors and lymphomas; assay: Antitumor activity (RECIST 1.1 / lymphoma criteria); assay type: in vivo, human
Procedure: Tumor evaluations were scheduled before therapy and after every other cycle of therapy. Changes were determined by physical examination, tumor markers, or standard imaging techniques. […] Read-outs were complete response (CR), partial response (PR), stable disease (SD), and disease progression (DP).

[5] = system: caspase-3 generated cytokeratin-18 fragments (M30); assay: Plasma M30 ELISA; assay type: in vivo, human; details: day 5, p < 0.0033
Procedure: as §1

[6] = parameters: method as in PMID 23813446; details: dogs; cited from earlier work
cIAP-1 [7] = system: cIAP-1; parameters: method as in PMID 21443232; details: cited from earlier work
cIAP-1 [8] = molecular target: T1, cIAP-1 (Homo sapiens, UniProt Q13490); assay: cIAP1 IHC in skin and tumor biopsies; assay type: in vivo
T1 construct: endogenous in cells; host or cells: peripheral blood mononuclear cells (PBMCs) of patients
Procedure: Pharmacokinetic samples were taken from all patients on day 1 (predose, 0.5, 1, 2, 3, 4, 6, 8, 12, 18 h postdose) and on day 5 (predose, 0.5, 1, 2, 3, 4, 6, 8 h postdose) of the first cycle. In addition, for exploratory PD analysis of IAP inhibition and activation of apoptosis, optional skin and tumor biopsies were taken from consenting patients on days 1 (predose) and 5 and blood samples on day 1 (predose, 1, 3, 6, 8, 12 h postdose), day 2 (predose), and day 5 (3 h postdose).
cIAP-1 levels were measured in tumor tissue and surrogate tissue as available. Peripheral blood mononuclear cells (PBMCs) were analyzed for DEBIO1143-induced cIAP-1 degradation. Plasma native cytokeratin-18 (M65) or caspase-3 generated cytokeratin-18 fragments (M30), interleukin 8 (IL8), chemokine ligand 2 (CCL2, MCP1), and tumor necrosis factor α (TNFα) were measured by ELISA as markers of epithelial cell death and inflammation on days 1 (predose, 1, 3, 6, and 12 h postdose), 2, and 5.
For the detection of cIAP-1 in paraffin-embedded human tissue, a validated immunohistochemical (IHC) assay was used. DEBIO1143-induced cIAP-1 degradation was measured in PBMCs using Western blot. Plasma biomarkers were measured through commercial ELISAs. All laboratory analyses were performed by MPI Research, Inc. (PK) and Mosaic Laboratory, LLC (PD).

T1 sequence (Q13490 whole entry): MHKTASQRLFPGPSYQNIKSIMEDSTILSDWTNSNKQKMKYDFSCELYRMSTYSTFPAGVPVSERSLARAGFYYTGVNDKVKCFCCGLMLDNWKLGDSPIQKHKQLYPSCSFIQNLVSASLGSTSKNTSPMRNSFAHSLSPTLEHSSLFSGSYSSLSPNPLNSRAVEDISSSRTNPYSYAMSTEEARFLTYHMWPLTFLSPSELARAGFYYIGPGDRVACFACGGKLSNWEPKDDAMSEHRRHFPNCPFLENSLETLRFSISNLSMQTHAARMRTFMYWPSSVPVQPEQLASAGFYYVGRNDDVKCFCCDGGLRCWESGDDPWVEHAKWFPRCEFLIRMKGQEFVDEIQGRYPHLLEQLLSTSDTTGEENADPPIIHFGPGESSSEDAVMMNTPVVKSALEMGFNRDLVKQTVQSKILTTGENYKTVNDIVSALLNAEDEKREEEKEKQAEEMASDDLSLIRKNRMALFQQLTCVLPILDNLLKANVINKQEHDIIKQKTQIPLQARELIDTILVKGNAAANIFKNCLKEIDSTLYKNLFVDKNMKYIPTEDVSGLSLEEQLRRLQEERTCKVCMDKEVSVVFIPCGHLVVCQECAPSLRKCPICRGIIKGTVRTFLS

CN[C@@H](C)C(=O)N[C@H]1CN(C(=O)CC(C)C)CC[C@H]2CC[C@@H](C(=O)NC(c3ccccc3)c3ccccc3)N2C1=O [DEBIO1143]
Deaths during the study ([1]; N=31): No patient died
Dose dependence of AEs ([1]; human, in vivo): neither incidence nor severity increased with dose
Dose-limiting toxicity observed ([1]; human, in vivo): grade 3 reversible ALT elevation
Grade 4–5 treatment-related AE ([1]; human, in vivo): no grade 4–5 treatment-related AE
Number of AEs ([1]; human, in vivo): 242
Number of SAEs ([1]; human, in vivo): 13
Number of dose-limiting toxicities (DLT) ([1]; human, in vivo): one
SAEs related to study drug ([1]; human, in vivo): none of which was considered related to study drug
Safety laboratory, ECG, vital signs, body weight, ECOG performance status ([1]; human, in vivo): No clinically meaningful trends
Maximum tolerated dose (MTD) ([1]; oral, days 1–5 every 2 or 3 weeks, up to 900 mg): No MTD was found; also recorded: not reached
Oral bioavailability [2]: good
Patients with detectable TNFα showing some increase postdose [3]: four out of five
Complete or partial response ([4]; 31 patients): No patient had a complete or partial response
Duration of stable disease, range ([4]; five patients): 85 to 197 days
Median duration of stable disease ([4]; five patients): 93 days
Reduction in target lesion dimensions ([4]; one patient with metastatic melanoma, 400 mg/day): 11%
Plasma level of M30 [5]: increased significantly
Oral bioavailability [6]: good
cIAP-1 degradation (cIAP-1 [7]): rapidly induced degradation of cIAP-1
cIAP1 level in skin biopsies (IHC) (cIAP-1 [8]; 12 patients): trend for a decrease
Immunoactivity of cIAP1 in tumor biopsy (IHC) (cIAP-1 [8]; melanoma patient, 120 mg/day, day 5, predose 150): 130
Percentage of cIAP1-positive cells in tumor biopsies (cIAP-1 [8]; melanoma patient, 400 mg/d): only negligible effect
